Reference: patent publication US20070134733A1, “Raman signature probes and their use in the detection and imaging of molecular processes and structures” (Parallax Biosystems, Inc., priority 2003, published 2007)

What follows are compounds tested against T1, NADH-dependent enoyl acyl carrier reductase (FabI) (Escherichia coli, UniProt P0AEK4) (assay: FabI enzyme inhibition assay (NADH consumption, absorbance at 340 nm)). Conditions: purified HIS-tagged FabI enzyme, NADH and substrate (e.g. Malonyl CoA or Crotonyl CoA).
T1 construct: made in house; host or cells: recombinant bacteria (strain from Dr. Charles Rock, St. Jude Children's Research Hospital)
Type: biochemical, bacteria
Source text: Prior to using the potential RSP compounds as probes to detect bacteria the modified compounds will be tested for their ability to inhibit FabI. As shown with numerous studies that have explored the structure activity relationship of other FabI inhibitor analogs, there is a good correlation between the ability of a compound to inhibit the enzyme and its affinity towards the enzyme (Seefeld et al., Bioorg. Med. Chem. Lett. 11 (2001) 2061-2065). Recombinant bacteria expressing a HIS-tagged FabI protein are available from Dr. Charles Rock at St. Jude Children's Research Hospital in Memphis Tenn. The overexpressed protein is readily purified as a bioactive enzyme using conventional Ni^2+ chromatographic methods (Heath & Rock, J. Biol. Chem. 270 (1995) 26538-26542). Enzyme assays will be performed as described by Bergler et al. (J. Biol. Chem. 269 (1994) 5493-5496). Briefly, purified HIS-tagged FabI enzyme is added to a reaction containing NADH and an appropriate substrate (e.g. Malonyl CoA or Crotonyl CoA). The reductase activity is assayed by monitoring the decrease in absorbance at 340 nm due to the consumption of NADH. The inhibitory activity of all RSPs will be compared with Compound 1.

T1 sequence (P0AEK4 whole entry): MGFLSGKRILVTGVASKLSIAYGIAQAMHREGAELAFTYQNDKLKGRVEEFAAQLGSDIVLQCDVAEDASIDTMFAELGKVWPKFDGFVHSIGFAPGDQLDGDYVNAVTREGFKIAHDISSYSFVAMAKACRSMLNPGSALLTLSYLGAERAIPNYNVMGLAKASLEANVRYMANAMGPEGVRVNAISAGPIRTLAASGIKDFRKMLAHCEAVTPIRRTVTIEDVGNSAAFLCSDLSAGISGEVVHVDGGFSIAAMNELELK

Going from `Nc1ccc(Cn2c3c(c4ccccc42)CCN(C(=O)c2ccc(O)cc2)C3)cc1` [Compound 1, reference compound] to `N#Cc1ccc(Cn2c3c(c4ccccc42)CCN(C(=O)c2ccc(Cl)cc2)C3)cc1` [Compound 1A], the EC50 rises from 670 nM to 2520 nM (3.8-fold).

First: [2H]c1c([2H])c([2H])c(C(=O)N2CCc3c(n(Cc4ccc(F)cc4)c4ccccc34)C2)c([2H])c1[2H] [Compound 1B]
Second: N#Cc1ccc(Cn2c3c(c4ccccc42)CCN(C(=O)c2ccc(Br)cc2)C3)cc1 [Compound 1C]
The EC50 of the first is 1.7-fold lower: 1500 nM for the first, 2530 nM for the second.

`CC#CCn1c2c(c3ccccc31)CCN(C(=O)c1ccc(Cl)cc1)C2` [Compound 1D] and `[2H]C([2H])([2H])C([2H])([2H])n1c2c(c3ccccc31)CCN(C(=O)c1ccc(Cl)cc1)C2` [Compound 1E] are within 1.5-fold of each other in EC50: 6010 nM for the first, 7830 nM for the second.
